# Results taken from US20060148692A1, “Novel protein and its dna” (priority 2003, published 2006).
# Tests used:
# GeneBank No. 170665 [1] = experiment: Gene expression analysis (oligonucleotide microarray) in rat primary nerve cells under endoplasmic reticulum stress; assay type: cell-based; conditions: standardized with the median (=1)
# Method: Rat primary nerve cells prepared from TP-17 CD rats (Nippon Charles River) were suspended in B27-containing neurobasal medium (NB medium, GIBCO), then put at a density of 250,000 cells/well in a type I collagen-coated 24-well plate (SUMILON), and cultured for 3 days. (i) Tunicamycin (Tnc) was added at a final concentration of 100 nM to the cultured cells, (ii) thapsigargin (Thap) was added at a final concentration of 2 nM to the cultured cells, or (iii) after the medium was exchanged twice with glucose-free B27-containing DMEM medium, 2-deoxyglucose (2DG) was added at a concentration of 3 mM to the cultured cells. After 4, 8, and 24 hours, total RNA was extracted from the respective cells by using RNeasy Mini Kit (Qiagen) according to its instructions. As the control, the cells to which each medium was added in place of the above chemicals (Tnc, Thap and 2DG) (cells to which no chemical was added) were used. These were used as the material to conduct gene expression analysis using an oligonucleotide microarray (Rat Genome U34A, Affymetrix).
# The experimental method was in accordance with instructions of Affymetrix (Expression analysis technical manual). As a result of comparison of gene expression profiles of the cells stimulated with each chemical and the cells to which no chemical was added, the expression of GeneBank No. 170665 was promoted by endoplasmic reticulum stress stimulation [the above (i), (ii) and (iii)] (Table 1).
# GeneBank No. 170665 [2] = experiment: Gene expression analysis (oligonucleotide microarray) in rat primary nerve cells stimulated with β-amyloid; assay type: cell-based; conditions: β-amyloid 25 nM, standardized with the median (=1)
# Method: For the purpose of examining whether the expression of GeneBank No. 170665 whose expression was promoted by endoplasmic reticulum stress was influenced by β-amyloid stimulation, gene expression analysis was conducted using the cells stimulated with β-amyloid in the same manner as in Example 1.
# Rat primary nerve cells prepared in the same manner as in Example 1 were suspended in N2-containing DMEM medium (GIBCO), then put at a density of 250,000 cells/well and cultured for 4 days. After culture, β-amyloid suspended at a final concentration of 25 nM in the above medium was added to the cells. After 4, 8, and 24 hours, total RNA was extracted from the cells and gene analysis was conducted in the same manner as in Example 1. As the control, the cells to which the above medium was added in place of β-amyloid were used. The expression of GeneBank No. 170665 was promoted in the cells stimulated with β-amyloid, as compared with the control (Table 2).
# SK-N-AS cells = experiment: DNA cleavage accompanying tunicamycin-induced cell-death (CELL DEATH DETECTION ELISA PLUS) in transformed cells; assay type: cell-based, human; conditions: SK-N-AS cells transformed with the C1 gene vs pcDNA3.1 control cells; tunicamycin for 1 or 2 days
# Method: A plasmid comprising the nucleotide sequence represented by SEQ ID NO:2 was designated C1-pcDNA3.1/V5-His TOPO, and a transformant having the plasmid was designated Escherichia coli DH5α/C1-pcDNA3.1N5-His TOPO. This transformant was cultured in LB medium, and the vector was recovered by using QUAGEN plasmid midi kit (Qiagen). This C1 gene expression vector was transformed into SK-N-AS cells by using Nucleofector (AMAXA). As the control, pcDNA3.1 (Invitrogen) was transformed into SK-N-AS cells.
# The respective transformed cells were put at a density of 7500 cells/well in a type I collagen-coated 96-well plate (IWAKI) and then cultured overnight, and after tunicamycin was added at various concentrations, the cells were cultured for 1 or 2 days to induce cell-death. After culture, DNA cleavage accompanying cell-death was detected by using CELL DEATH DETECTION ELISA^PLUS kit (Roche). The experimental method was in accordance with instructions attached to the kit.
# IMR-32 cells = experiment: Aβ40 and Aβ42 concentration in culture supernatant of transformed cells by ELISA; assay type: cell-based; conditions: IMR-32 cells transformed with C1 vs GFP control cells; 24 hours after medium exchange
# Method: The C1 gene expression vector described in Example 4 was transformed into IMR-32 cells by using Nucleofector (AMAXA). As the control, a GFP gene expression vector (Wako) was transformed into other IMR-32 cells. The respective transformed cells were put at a density of 1,000,000 cells/well in a type I collagen-coated 24-well plate (IWAKI) and cultured for 16 hours. After the medium was exchanged with a new one, the cells were cultured for additional 24 hours, and the concentrations of Aβ40 and Aβ42 in the culture supernatant were measured respectively by ELISA (Biochemistry 34, 10272-10278, 1995).
molecule,measurement,setting,value
tunicamycin,Gene expression level,"GeneBank No. 170665 [1]; tunicamycin 100 nM, after 4 hours",3.00
same,Gene expression level,"GeneBank No. 170665 [1]; tunicamycin 100 nM, after 8 hours",2.81
same,Gene expression level,"GeneBank No. 170665 [1]; tunicamycin 100 nM, after 24 hours",3.63
"O=CC[C@@H](O)[C@H](O)[C@H](O)CO [2DG, 2-deoxyglucose]",Gene expression level,"GeneBank No. 170665 [1]; 2DG 3 mM in glucose-free DMEM medium, after 4 hours",16.71
same,Gene expression level,"GeneBank No. 170665 [1]; 2DG 3 mM in glucose-free DMEM medium, after 8 hours",15.11
same,Gene expression level,"GeneBank No. 170665 [1]; 2DG 3 mM in glucose-free DMEM medium, after 24 hours",14.55
β-amyloid,Gene expression level,GeneBank No. 170665 [2]; after 4 hours,3.44
same,Gene expression level,GeneBank No. 170665 [2]; after 8 hours,6.99
same,Gene expression level,GeneBank No. 170665 [2]; after 24 hours,4.40
C/C=C(/C)C(=O)O[C@H]1C(C)=C2[C@H]([C@@H]1OC(=O)CCCCCCC)[C@@](C)(OC(C)=O)C[C@H](OC(=O)CCC)[C@@]1(O)[C@H]2OC(=O)[C@@]1(C)O [thapsigargin],Gene expression level,"GeneBank No. 170665 [1]; thapsigargin 2 nM, after 4 hours",8.77
same,Gene expression level,"GeneBank No. 170665 [1]; thapsigargin 2 nM, after 8 hours",9.65
same,Gene expression level,"GeneBank No. 170665 [1]; thapsigargin 2 nM, after 24 hours",7.56
"C1: 264-amino-acid protein (SEQ ID NO: 1) encoded by SEQ ID NO:2; tested by transforming cells with C1 gene expression vector (protein, listed as Homo sapiens) MGGAQLELPSGARPGVCVRRSFRAHAGDQPRRPPGPIPVPGTMKQESAAPNTPPTSQSPTPSAQFPRNDGDPQALWIFGYGSLVWRPDFAYSDSRVGFVRGYSRRFWQGDTFHRGSDKMPGRVVTLLEDHEGCTWGVAYQVQGEQVSKALKYLNVREAVLGGYDTKEVTFYPQDAPDQPLKALAYVATPQNPGYLGPAPEEAIATQILACRGFSGHNLEYLLRLADFMQLCGPQAQDEHLAAIVDAVGTMLPCFCPTEQALALV",DNA cleavage (cell-death),SK-N-AS cells,promoted
same,Aβ40 concentration in culture supernatant,IMR-32 cells,reduced
same,Aβ42 concentration in culture supernatant,IMR-32 cells,reduced
